# Data taken from patent US8399466B2, “Composition for regenerative treatment of cartilage disease” (Mitsubishi Tanabe Pharma Corporation, priority 2001, dated 2013).
# Key:
# articular chondrocytes = assay: Increase of matrix production of articular chondrocytes (Alcian blue staining of proteoglycan); type: cell-based, rabbit; conditions: for Proteoglycan Production (%): cultivation until day 5, vehicle = 100
# Description: Four NZW line rabbits (Kitayama Labes., Co Ltd.; male; 4-week-old) were sacrificed with bleeding under ether anesthesia and femur knee joints were collected aseptically. The collected knee joints were stored in phosphate buffer (pH 7.2) containing 0.2% glucose and only the cortical layer of knee joint was scrapped with a surgical knife into a 50 ml tube containing phosphate buffer (pH 7.2) containing 0.2% glucose. The collected knee joint cortical layer was cut into as small sections as possible on a dish with a razor and shaken at 37° C. for 15 minutes in phosphate buffer containing 0.2% glucose, supplied with 10× trypsin-ethylenediamine tetraacetic acid (EDTA)·4 Na salt (GIBCO; Cat. No. 15400-054) (50 ml, with 100 mg of trypsin and 40 mg of EDTA·4Na; pH 7.2). After shaking, the sample was centrifuged (1,400 rpm) to collect precipitates, and the precipitates were washed twice with 40 ml of phosphate buffer containing 0.2% glucose. The washed precipitates were combined with 40 ml of serum-free α-minimum essential medium (MEM: GIBCO; Cat: No. 12571-063) containing 60 mg of collagenase for cell diffusion (Wako Pure Chemical Industries, Ltd., 034-10533) and transferred to a 100 ml beaker containing a sterilized stirrer bar. Under stirring with the stirrer bar, the collagenase digestion was carried on for about 1 hour in a CO2 incubator at 37° C. Cartilage fragments were removed from the collagenase-treated cells using a […] Cell Strainer ([FALCON; Cat. No. 2340]). To the residual treated cells was added 10 ml of α-MEM medium containing 10% fetal calf serum (FCS), and centrifuged (1,400 rpm). The precipitates were washed with 10% FCS-αMEM medium twice, suspended in appropriate volume of the same medium and the resultant suspension was seeded into collagen type II (Wako Pure Chemical Industries, Ltd., 033-13901)-coated plates (48 well) at 20,000 cells/well. On the next day, the medium was replaced with 10% FCS-αMEM medium.
# When cells reached to confluent after the medium exchange procedure above, the medium for test group was replaced with test compound-containing medium (including 0.1% dimethylsulfoxide as a vehicle). As a medium to which a test compound is added, 10% FCS-αMEM medium containing 0.2 mM ascorbic acid was used. The day on which test compound-containing medium was added for the first time was defined as “day 1”. The medium exchange with the same medium was again conducted at day 3 and the cultivation continued until day 5. As to the control group, the medium was exchanged at the same time using the same medium as the test group except that it is free of test compound (containing vehicle only), and the cultivation was carried out in the same manner. After completion of cultivation, the supernatant was removed from the culture medium. Cells were fixed by addition of 0.25 ml of neutral buffer containing 4% paraformaldehyde and incubation for 2 hours. Cells were washed three times with 1 ml of phosphate buffer (pH 7.2) and then stained for 4 hours with 0.1% Alcian blue 8GX (Sigma; A3157) dissolved in 0.1 M hydrochloric acid, which Alcian blue selectively stains cartilage matrix proteoglycan. After staining, the cells were washed 3 times with 1 ml of phosphate buffer (pH 7.2). Alcian blue which had stained cartilage matrix was dissolved with 0.25 ml of aqueous 6 M guanidine hydrochloride solution and a portion of the solution was used to determine the absorbance at 620 nm. The amounts of Alcian blue used for staining was calculated from the absorbance, which in turn was used for the estimation of the amount of matrix (proteoglycan).
# [1] = system: cAMP-hydrolyzing PDE expressed in articular cartilage (PDE4-related peaks); assay: cAMP hydrolyzing activity (PDE activity) of Mono Q fractions of articular cartilage extract, radio-labeled nucleic acid assay; type: biochemical, rabbit; conditions: final concentration 1×10^−5 M; FIG. 1
# Description: Four NZW line rabbits (Kitayama Labes., Co Ltd.; male; 4-week-old) were sacrificed with bleeding under ether anesthesia and femur knee joints were collected aseptically. The collected knee joints were stored in phosphate buffer (pH 7.2) containing 0.2% glucose and only the cortical layer of knee joint portion was scrapped with a knife into a 50 ml tube containing phosphate buffer (pH 7.2) containing 0.2% glucose. The collected knee joint cortical layer was cut into as small sections as possible on a dish with a razor, washed with ice-cold phosphate buffer and homogenized with a homogenizer (Polytron: Kinematica A.G.) in homogenization buffer (20 mM Tris-HCl, pH 7.4, 2 mM magnesium acetate, 0.3 mM calcium chloride, 1 mM dithiothreitol, 40 μM leupeptin, 1.3 mM benzamidine, 0.2 mM phenylmethylsulfonyl fluoride and 1 mM sodium azide). The resultant homogenate was centrifuged (100,000×g, 60 minutes) to separate supernatant.
# The supernatant was subjected to Mono Q Sepharose High Performance column (Amersham Pharmacia Biotech) previously equilibrated with an elution buffer (20 mM Tris-HCl, pH 7.4, 1 mM calcium chloride, 1 mM dithiothreitol, 2 μM leupeptin, 5 mM benzamidine). […]
# The determination of PDE activity was performed by a radio-labeled nucleic acid assay. […] To each eluate was added a liquid scintillation cocktail and the radio activity was measured.
smiles,measurement,setting,value
COc1ccc(C2CNC(=O)C2)cc1OC1CCCC1 (stereo not shown) [Compound (44)],Proteoglycan Production (%),articular chondrocytes; 1 × 10^−4 M,116%
same,Proteoglycan Production (%),articular chondrocytes; 1 × 10^−5 M,125%
same,matrix production promoting activity,articular chondrocytes; summary of Table 1,exert matrix production promoting activity
same,inhibition of cAMP hydrolyzing activity of the four peaks,[1],strongly inhibited
